How the values were obtained:
sourgrass = assay: Test D sourgrass; assay type: in vivo, Trichachne insularis; conditions: Preemergence, 0 to 100 scale
Source text: Seeds, tubers, or plant parts of Alexandergrass (Brachiaria plantaginea), bermuda-grass (Cynodon dactylon), common pursiane (Portulaca oleracea), common ragweed (Ambrosia elatior), common groundsel (Senecio vulgaris), dallisgrass (Paspalum dilatatum), goosegrass (Eleusine indica), guineagrass (Panicum maximum), itchgrass (Rottboellia exaltata), Johnson grass (Sorghum halepense), large crabgrass (Digitaria sanguinalis), pitted morningglory (Ipomoea lacunosa), purple nutsedge (Cyperus rotundus), sandbur (Cenchrus echinatus), sourgrass (Trichachne insularis), Spanishneedles (Bidens bipinnata), surinam grass (Brachiaria decumbens) and tall mallow (Malva sylvestris) were planted into greenhouse pots of flats containing greenhouse planting medium. Plant species were grown in separate pots or individual compartments. Preemergence applications were made within one day of planting the seed or plant part.
Test chemicals were formulated in a non-phytotoxic solvent mixture which included a surfactant and applied preemergence to the surface of the pot containing seeds in a sandy loam soil. Untreated control pots and treated pots were placed in the greenhouse for growth and visually evaluated for injury 14 to 21 days after herbicide application. Plant response ratings, summarized in Table C, are based on a 0 to 100 scale where 0 is no injury and 100 is complete control. A dash (−) response means no test result.

black nightshade = assay: Test E black nightshade; assay type: in vivo, Solanum nigra; conditions: Preemergence; for Blk nightshade plant response rating (0 to 100 scale): Rate 250 g/ha
cocklebur = assay: Test C postemergence cocklebur; assay type: in vivo, Xanthium strumarium; conditions: 0 to 100 scale, 0 no effect, 100 complete control
Method in brief: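 In this greenhouse assay, treated and untreated plants were kept for approximately 14 to 21 days following postemergence application, then rated by eye on a scale from 0 (no effect) to 100 (complete control).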

downy brome = assay: Test E downy brome; assay type: in vivo, Bromus tectorum; conditions: Preemergence; for Downy brome plant response rating (0 to 100 scale): Rate 250 g/ha
sugar beet = assay: Test E sugar beet; assay type: in vivo, Beta vulgaris; conditions: Postemergence; for Plant response rating, Sugar beet: 0 to 100 scale; for Sugar beet plant response rating: Rate 250 g/ha, 0 to 100 scale where 0 is no effect and 100 is complete control
Method in brief: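 Each compound, carried in a non-phytotoxic solvent blend including surfactant, was applied (postemergence: over the top of young plants at 1- to 4-leaf stage). Plants stayed in the greenhouse about 21 to 28 days before visual comparison with untreated controls.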

wild mustard = assay: Test E wild mustard; assay type: in vivo, Sinapis arvensis; conditions: Postemergence; for Plant response rating, Wild mustard: 0 to 100 scale; for Wild mustard plant response rating: Rate 250 g/ha, 0 to 100 scale where 0 is no effect and 100 is complete control
Procedure: […] A mixture of sandy loam soil and greenhouse potting mix in a 60:40 ratio was used for the postemergence test.
Plantings of these crops and weed species were adjusted to produce plants of appropriate size for the postemergence test. All plant species were grown using normal greenhouse practices. Crop and weed species include annual bluegrass (Poa annua), blackgrass (Alopecurus myosuroides), black nightshade (Solanum nigra), chickweed (Stellaria media), common poppy (Papaver rhoeas), deadnettle (Lamium amplexicaule), downy brome (Bromus tectorum), field violet (Viola arvensis), galium (Galium aparine), green foxtail (Setaria viridis), Italian ryegrass (Lolium multiflorum), jointed goatgrass (Aegilops cylindrica), kochia (Kochia scoparia), lambsquarters (Chenopodium album), littleseed canarygrass (Phalaris minor), rape (Brassica napus), redroot pigweed (Amaranthus retroflexus), Russian thistle (Salsola kali), scentless chamomile (Matricaria inodora), spring barley (Hordeum vulgare), sugar beet (Beta vulgaris), sunflower (Helianthus annuus), ivyleaf speedwell (Veronica hederaefolia), spring wheat (Triticum aestivum), winter wheat (Triticum aestivum), wild buckwheat (Polygonum convolvulus), wild mustard (Sinapis arvensis), wild oat (Avena fatua), windgrass (Apera spica-venti) and winter barley (Hordeum vulgare).
Treated plants and untreated controls were maintained in a greenhouse for approximately 21 to 28 days, after which all treated plants were compared to untreated controls and visually evaluated. […] A dash response (-) means no test result.

jointed goatgrass = assay: Test E jointed goatgrass; assay type: in vivo, Aegilops cylindrica; conditions: Preemergence; for Jointed goatgra plant response rating (0 to 100 scale): Rate 250 g/ha
rape = assay: Test E rape; assay type: in vivo, Brassica napus; conditions: Preemergence; for Rape plant response rating (0 to 100 scale): Rate 250 g/ha
tall mallow = assay: Test D tall mallow; assay type: in vivo, Malva sylvestris; conditions: Postemergence, 0 to 100 scale
sandbur = assay: Test D sandbur; assay type: in vivo, Cenchrus echinatus; conditions: Postemergence, 0 to 100 scale
Green foxtail = assay: Test D green foxtail; assay type: in vivo; conditions: Postemergence, 0 to 100 scale, 0 no injury, 100 complete control
pitted morningglory = assay: Test D pitted morningglory; assay type: in vivo, Ipomoea lacunosa; conditions: Postemergence, 0 to 100 scale
guineagrass = assay: Test D guineagrass; assay type: in vivo, Panicum maximum; conditions: Postemergence, 0 to 100 scale
[1] = Rate 64 g/ha, 0 no injury, 100 complete control
[2] = Rate 125 g/ha, 0 to 100 scale (0 no effect, 100 complete control)
[3] = Rate 125 g/ha, 0 no injury, 100 complete control
[4] = Rate 500 g/ha, 0 to 100 scale where 0 is no effect and 100 is complete control
[5] = Rate 16 g/ha, 0 no injury, 100 complete control
[6] = Rate 32 g/ha, 0 no injury, 100 complete control
[7] = Rate 125 g/ha, 0 is no effect, 100 is complete control
[8] = Rate 500 g/ha, 0 is no effect, 100 is complete control

Compound: COc1ccccc1-n1c(=O)on(C(=O)N(c2ccc(F)cc2)C(C)C)c1=O [Compound 30]
- Plant response rating Sourgrass (sourgrass; [1]): 100

Compound: CC(C)N(C(=O)n1oc(=O)n(C)c1=O)c1ccc(F)cc1 [Compound 138]
- Plant response rating, Blk nightshade (black nightshade; [2]): 85
- Blk nightshade plant response rating (0 to 100 scale) (black nightshade): 95
- Plant response rating, Cocklebur (cocklebur; Rate 140 g/ha): 0
- Plant response rating, Cocklebur (cocklebur; Rate 280 g/ha): 0
- Plant response rating, Cocklebur (cocklebur; Rate 560 g/ha): 0
- Plant response rating, Cocklebur (cocklebur; Rate 1120 g/ha): 0
- Plant response rating, Downy brome (downy brome; [2]): 90
- Downy brome plant response rating (0 to 100 scale) (downy brome): 90
- Plant response rating, Sugar beet (sugar beet; Rate 125 g/ha): 30
- Sugar beet plant response rating (sugar beet): 10
- Plant response rating, Wild mustard (wild mustard; Rate 125 g/ha): 0
- Wild mustard plant response rating (wild mustard): 0
- Plant response rating, Jointed goatgra (jointed goatgrass; [2]): 65
- Jointed goatgra plant response rating (0 to 100 scale) (jointed goatgrass): 80
- Plant response rating Sourgrass (sourgrass; [1]): 98
- Plant response rating Sourgrass (sourgrass; [3]): 100
- Plant response rating Sourgrass (sourgrass; Rate 500 g/ha): 100
- Plant response rating, Rape (rape; [2]): 30
- Rape plant response rating (0 to 100 scale) (rape): 95

Compound: CC(C)N(C(=O)n1oc(=O)n(C2CC2)c1=O)c1ccc(F)cc1 [Compound 242]
- Plant response rating, Blk nightshade (black nightshade; [2]): 70
- Blk nightshade plant response rating (0 to 100 scale) (black nightshade): 95
- Plant response rating, Blk nightshade (black nightshade; [4]): 95
- Plant response rating, Tall Mallow (tall mallow; [5]): 0
- Plant response rating, Tall Mallow (tall mallow; [6]): 0
- Tall Mallow plant response rating (tall mallow; [1]): 50
- Tall Mallow plant response rating (tall mallow; [3]): 90
- Plant response rating, Tall Mallow (tall mallow; Rate 250 g/ha): 100
- Plant response rating, Sandbur (sandbur; [5]): 20
- Plant response rating, Sandbur (sandbur; [6]): 30
- Sandbur plant response rating (sandbur; [1]): 50
- Sandbur plant response rating (sandbur; [3]): 100
- Plant response rating, Sandbur (sandbur; Rate 250 g/ha): 100
- Plant response rating, Cocklebur (cocklebur; Rate 140 g/ha): 0
- Plant response rating, Cocklebur (cocklebur; Rate 280 g/ha): 0
- Plant response rating, Cocklebur (cocklebur; Rate 560 g/ha): 0
- Plant response rating, Cocklebur (cocklebur; Rate 1120 g/ha): 20
- Plant response rating, Downy brome (downy brome; [2]): 70
- Downy brome plant response rating (0 to 100 scale) (downy brome): 100
- Plant response rating, Downy brome (downy brome; [4]): 100
- Plant response rating, Sugar beet (sugar beet; Rate 62 g/ha): 50
- Plant response rating, Sugar beet (sugar beet; [7]): 50
- Sugar beet plant response rating (sugar beet): 40
- Plant response rating, Sugar beet (sugar beet; [8]): 30
- Plant response rating, Wild mustard (wild mustard; Rate 62 g/ha): 0
- Plant response rating, Wild mustard (wild mustard; [7]): 20
- Wild mustard plant response rating (wild mustard): 20
- Plant response rating, Wild mustard (wild mustard; [8]): 5
- Green foxtail plant response rating (Green foxtail; Rate 64 g/ha): 100
- Green foxtail plant response rating (Green foxtail; Rate 125 g/ha): 100
- Plant response rating, Jointed goatgra (jointed goatgrass; [2]): 65
- Jointed goatgra plant response rating (0 to 100 scale) (jointed goatgrass): 80
- Plant response rating, Jointed goatgra (jointed goatgrass; [4]): 90
- Plant response rating, P. morninglory (pitted morningglory; [5]): 0
- Plant response rating, P. morninglory (pitted morningglory; [6]): 0
- Plant response rating, P. morninglory (pitted morningglory; [1]): 0
- Plant response rating, P. morninglory (pitted morningglory; [3]): 0
- Plant response rating, P. morninglory (pitted morningglory; Rate 250 g/ha): 0
- Plant response rating, Rape (rape; [2]): 50
- Rape plant response rating (0 to 100 scale) (rape): 60
- Plant response rating, Rape (rape; [4]): 85
- Plant response rating, Guineagrass (guineagrass; [5]): 0
- Plant response rating, Guineagrass (guineagrass; [6]): 100
- Guineagrass plant response rating (guineagrass; [1]): 80
- Plant response rating, Guineagrass (guineagrass; [1]): 0
- Plant response rating, Guineagrass (guineagrass; [3]): 100
- Plant response rating, Guineagrass (guineagrass; Rate 250 g/ha): 100

Compound: CC(C)N(C(=O)n1oc(=O)n(C2CCCCCC2)c1=O)c1ccc(F)cc1F [Compound 342]
- Plant response rating, Tall Mallow (tall mallow; [5]): 0
- Plant response rating, Tall Mallow (tall mallow; [6]): 0
- Tall Mallow plant response rating (tall mallow; [1]): 0
- Tall Mallow plant response rating (tall mallow; [3]): 0
- Plant response rating, Tall Mallow (tall mallow; Rate 250 g/ha): 10
- Plant response rating, Sandbur (sandbur; [5]): 0
- Plant response rating, Sandbur (sandbur; [6]): 0
- Sandbur plant response rating (sandbur; [1]): 0
- Plant response rating, Sandbur (sandbur; Rate 250 g/ha): 0
- Green foxtail plant response rating (Green foxtail; Rate 64 g/ha): 0
- Green foxtail plant response rating (Green foxtail; Rate 125 g/ha): 60
- Plant response rating, P. morninglory (pitted morningglory; [5]): 0
- Plant response rating, P. morninglory (pitted morningglory; [6]): 0
- Plant response rating, P. morninglory (pitted morningglory; [1]): 0
- Plant response rating, P. morninglory (pitted morningglory; [3]): 0
- Plant response rating, P. morninglory (pitted morningglory; Rate 250 g/ha): 0
- Plant response rating, Guineagrass (guineagrass; [5]): 0
- Plant response rating, Guineagrass (guineagrass; [6]): 0
- Guineagrass plant response rating (guineagrass; [1]): 0
- Plant response rating, Guineagrass (guineagrass; [1]): 80
- Plant response rating, Guineagrass (guineagrass; [3]): 50
- Plant response rating, Guineagrass (guineagrass; Rate 250 g/ha): 90

Reference: US6737383B1, “Herbicidal oxadiazolidines” (priority 1999, dated 2004)
